Laboratory results taken from ChEMBL document CHEMBL4665678, “Overview of AKR1C3: Inhibitor Achievements and Disease Insights” (J Med Chem, 2020).
Where a chain is given by its changes, count along the chain named. Blank lines part the entries; values can stand above or below the compound they belong to.

How the values were obtained:
[1] = target: T1, Aldo-keto reductase family 1 member C3 (Homo sapiens, UniProt P42330); experiment: Inhibition of AKR1C3 (unknown origin) expressed in human HCT116 cells incubated for 3 to 6 hrs by UHPLC analysis; type: cell-based, HCT-116
T1 sequence (P42330 whole entry): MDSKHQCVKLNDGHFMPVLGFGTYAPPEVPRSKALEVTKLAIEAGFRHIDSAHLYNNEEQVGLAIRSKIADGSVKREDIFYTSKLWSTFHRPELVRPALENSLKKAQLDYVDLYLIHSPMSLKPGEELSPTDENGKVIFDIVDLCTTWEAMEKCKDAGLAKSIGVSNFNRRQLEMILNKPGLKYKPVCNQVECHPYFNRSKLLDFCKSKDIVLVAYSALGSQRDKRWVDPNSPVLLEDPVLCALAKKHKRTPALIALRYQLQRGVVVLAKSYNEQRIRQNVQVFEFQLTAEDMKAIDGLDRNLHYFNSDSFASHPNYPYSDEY

[2] = target: T1, Aldo-keto reductase family 1 member C3; experiment: Inhibition of human AKR1C3 expressed in Escherichia coli incubated for 30 mins in presence of NADPH regeneration system by UHPLC analysis
[3] = target: T1, Aldo-keto reductase family 1 member C3; experiment: Inhibition of human AKR1C3 expressed in Escherichia coli preincubated for 15 mins followed by Adion addition and measured after 30 mins by HPLC analysis
[4] = target: T1, Aldo-keto reductase family 1 member C3; experiment: Inhibition of N-terminal His-tagged human AKR1C3 (1 to 323 residues) expressed in Escherichia coli using 4-adione as substrate in presence of NADPH by fluorescence method
[5] = target: T2, Aldo-keto reductase family 1 member C3 (Homo sapiens) (UniProt P42330); experiment: Inhibition NH2-terminal His6-tagged recombinant human AKR1C3 expressed in Escherichia coli BL21(DE3) cells using assessed as phenanthrenequinone reduction
T2 sequence (whole entry): T1 sequence (P42330 whole entry)

[6] = target: T3, Aldo-keto reductase family 1 member C2 (Homo sapiens, UniProt P52895); experiment: Inhibition NH2-terminal His6-tagged recombinant human AKR1C2 expressed in Escherichia coli BL21(DE3) cells using assessed as phenanthrenequinone reduction
T3 sequence (P52895 whole entry): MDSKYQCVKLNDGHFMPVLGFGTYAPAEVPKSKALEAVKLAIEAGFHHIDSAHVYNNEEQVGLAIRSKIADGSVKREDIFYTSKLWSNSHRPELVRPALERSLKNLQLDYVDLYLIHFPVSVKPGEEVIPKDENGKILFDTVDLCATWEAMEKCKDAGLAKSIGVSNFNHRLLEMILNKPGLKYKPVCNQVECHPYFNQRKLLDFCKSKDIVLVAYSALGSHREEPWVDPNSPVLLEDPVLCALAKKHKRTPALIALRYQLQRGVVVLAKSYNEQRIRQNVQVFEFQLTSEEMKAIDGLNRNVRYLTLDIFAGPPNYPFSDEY

[7] = target: T4, Aldo-keto reductase family 1 member C1 (Homo sapiens, UniProt Q04828); experiment: Inhibition of NH2-terminal His6-tagged recombinant human AKR1C1 expressed in Escherichia coli BL21(DE3) cells using assessed as phenanthrenequinone reduction
T4 sequence (Q04828 whole entry): T3 sequence (P52895 whole entry) with V38T, H47R, V54L, S87C, M151V, H170R, L172Q

[8] = target: T5, AKR1C2 (Homo sapiens, UniProt P52895); experiment: Inhibition of AKR1C2 (unknown origin) using 9,10-phenanthrenequinone as substrate at 60 uM relative to control; conditions: probe 9,10-phenanthrenequinone
T5 sequence (P52895 whole entry): T3 sequence (P52895 whole entry)

[9] = target: T6, AKR1C1 (Homo sapiens, UniProt Q04828); experiment: Inhibition of AKR1C1 (unknown origin) using 9,10-phenanthrenequinone as substrate at 60 uM relative to control; conditions: probe 9,10-phenanthrenequinone
T6 sequence (Q04828 whole entry): T3 sequence (P52895 whole entry) with V38T, H47R, V54L, S87C, M151V, H170R, L172Q

[10] = target: T7, Prostaglandin G/H synthase 2 (Homo sapiens, UniProt P35354); experiment: Inhibition of human COX-2 expressed in Sf9 insect cells using [14C] arachidonic acid as substrate preincubated for 20 mins followed by substrate addition measured after 30 sec by thin layer chromatography assay
T7 sequence (P35354 whole entry): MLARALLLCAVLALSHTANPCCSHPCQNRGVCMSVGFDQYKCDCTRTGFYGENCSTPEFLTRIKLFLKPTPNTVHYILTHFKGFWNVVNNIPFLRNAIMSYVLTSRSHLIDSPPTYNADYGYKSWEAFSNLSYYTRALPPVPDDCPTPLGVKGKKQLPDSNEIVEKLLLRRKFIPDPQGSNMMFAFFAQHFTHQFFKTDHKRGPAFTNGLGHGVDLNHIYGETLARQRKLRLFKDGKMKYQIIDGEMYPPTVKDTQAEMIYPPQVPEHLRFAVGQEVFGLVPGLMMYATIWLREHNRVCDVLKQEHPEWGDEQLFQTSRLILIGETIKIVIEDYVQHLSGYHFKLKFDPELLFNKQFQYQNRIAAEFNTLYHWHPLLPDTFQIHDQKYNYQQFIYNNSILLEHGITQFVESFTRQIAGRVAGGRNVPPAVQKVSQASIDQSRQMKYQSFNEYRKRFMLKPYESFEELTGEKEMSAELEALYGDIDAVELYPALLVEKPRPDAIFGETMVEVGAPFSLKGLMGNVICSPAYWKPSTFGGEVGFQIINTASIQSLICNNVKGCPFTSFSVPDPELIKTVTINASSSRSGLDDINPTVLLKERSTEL

[11] = target: T8, Prostaglandin G/H synthase 1 (Ovis aries, UniProt P05979); experiment: Inhibition of ovine COX-1 using [14C] arachidonic acid as substrate preincubated for 20 mins followed by substrate addition measured after 30 sec by thin layer chromatography assay
T8 sequence (P05979 whole entry): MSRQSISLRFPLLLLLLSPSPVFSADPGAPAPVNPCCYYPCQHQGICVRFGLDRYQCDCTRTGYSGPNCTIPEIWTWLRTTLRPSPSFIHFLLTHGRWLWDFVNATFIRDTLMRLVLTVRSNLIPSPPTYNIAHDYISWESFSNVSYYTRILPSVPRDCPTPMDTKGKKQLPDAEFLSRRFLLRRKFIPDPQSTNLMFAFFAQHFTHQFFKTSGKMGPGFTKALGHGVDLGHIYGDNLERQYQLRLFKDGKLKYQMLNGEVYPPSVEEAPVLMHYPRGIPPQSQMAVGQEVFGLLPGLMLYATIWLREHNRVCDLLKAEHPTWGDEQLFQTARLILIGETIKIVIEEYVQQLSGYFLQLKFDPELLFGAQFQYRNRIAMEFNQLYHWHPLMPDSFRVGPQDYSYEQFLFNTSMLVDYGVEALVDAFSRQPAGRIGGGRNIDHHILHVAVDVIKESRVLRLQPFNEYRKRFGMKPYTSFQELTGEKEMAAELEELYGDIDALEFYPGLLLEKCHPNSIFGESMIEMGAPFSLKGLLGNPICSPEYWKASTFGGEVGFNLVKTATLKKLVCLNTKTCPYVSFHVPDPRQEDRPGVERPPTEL

[12] = target: T1, Aldo-keto reductase family 1 member C3; experiment: Inhibition of AKR1C3 (unknown origin) using 4-androstene-3,17-dione as substrate
[13] = target: T1, Aldo-keto reductase family 1 member C3; experiment: Inhibition of AKR1C3 (unknown origin) using 9,10-phenanthrenequinone as substrate
[14] = target: T1, Aldo-keto reductase family 1 member C3; experiment: Inhibition of AKR1C3 (unknown origin) expressed in human HCT116 cells incubated for 2 to 4 hrs by UHPLC analysis; type: cell-based, HCT-116
[15] = target: T1, Aldo-keto reductase family 1 member C3; experiment: Inhibition of human AKR1C3 expressed in Escherichia coli incubated for 30 mins in presence of NADPH regeneration system by UHPLC method based Lineweaver-Burk double-reciprocal plot analysis

IC50 [1]: 0.23 µM
Ki ([2]; read-out: Ki(app)): 0.07 µM
SMILES: CCc1cnn2c(NCc3ccc[n+]([O-])c3)cc(N3CCCC[C@H]3CCO)nc12 [DINACICLIB]

SMILES: CO[C@@H]1C=C[C@@]23c4cc5c(cc4CO[C@]2(O)CN(C)[C@H]3C1)OCO5 [TAZETTINE]
IC50 [3]: 15.8 µM

IC50 [4]: 4.08 µM
SMILES: COc1ccc2cc3[n+](cc2c1OC)CCc1cc2c(cc1-3)OCO2 [BERBERINE]

Kis [5]: 153 µM/L
Kis [6]: 49 uM/L
Kis [7]: 162 uM/L
SMILES: CC/C=C\CC1C(=O)CCC1CC(=O)OC (stereo unspecified) [METHYL JASMONATE]

inhibition at 60 µM [8]: < 10%
inhibition at 60 µM [9]: < 10%
IC50 [10]: > 60 µM
IC50 [11]: > 60 µM
IC50 [12]: 11.4 µM
IC50 [13]: 7.8 µM
SMILES: COc1ccc2c(c1)c(CCNC(C)=O)cn2C(=O)c1ccc(Cl)cc1

IC50 [14]: 7.9 µM
Ki [15]: 14 µM
IC50 [2]: 9.5 µM
SMILES: Nc1cc(C(F)(F)F)c(-c2cc(N3CCOCC3)nc(N3CCOCC3)n2)cn1 [BUPARLISIB]
